# Target: human Nav1.7 (Homo sapiens (Human), UniProt Q15858)
# Test: Nav 1.7 in vitro PatchXpress (PX) assay
# Assay type: cell-based
# Conditions: not given
# human Nav1.7, sequence (Q15858 whole entry): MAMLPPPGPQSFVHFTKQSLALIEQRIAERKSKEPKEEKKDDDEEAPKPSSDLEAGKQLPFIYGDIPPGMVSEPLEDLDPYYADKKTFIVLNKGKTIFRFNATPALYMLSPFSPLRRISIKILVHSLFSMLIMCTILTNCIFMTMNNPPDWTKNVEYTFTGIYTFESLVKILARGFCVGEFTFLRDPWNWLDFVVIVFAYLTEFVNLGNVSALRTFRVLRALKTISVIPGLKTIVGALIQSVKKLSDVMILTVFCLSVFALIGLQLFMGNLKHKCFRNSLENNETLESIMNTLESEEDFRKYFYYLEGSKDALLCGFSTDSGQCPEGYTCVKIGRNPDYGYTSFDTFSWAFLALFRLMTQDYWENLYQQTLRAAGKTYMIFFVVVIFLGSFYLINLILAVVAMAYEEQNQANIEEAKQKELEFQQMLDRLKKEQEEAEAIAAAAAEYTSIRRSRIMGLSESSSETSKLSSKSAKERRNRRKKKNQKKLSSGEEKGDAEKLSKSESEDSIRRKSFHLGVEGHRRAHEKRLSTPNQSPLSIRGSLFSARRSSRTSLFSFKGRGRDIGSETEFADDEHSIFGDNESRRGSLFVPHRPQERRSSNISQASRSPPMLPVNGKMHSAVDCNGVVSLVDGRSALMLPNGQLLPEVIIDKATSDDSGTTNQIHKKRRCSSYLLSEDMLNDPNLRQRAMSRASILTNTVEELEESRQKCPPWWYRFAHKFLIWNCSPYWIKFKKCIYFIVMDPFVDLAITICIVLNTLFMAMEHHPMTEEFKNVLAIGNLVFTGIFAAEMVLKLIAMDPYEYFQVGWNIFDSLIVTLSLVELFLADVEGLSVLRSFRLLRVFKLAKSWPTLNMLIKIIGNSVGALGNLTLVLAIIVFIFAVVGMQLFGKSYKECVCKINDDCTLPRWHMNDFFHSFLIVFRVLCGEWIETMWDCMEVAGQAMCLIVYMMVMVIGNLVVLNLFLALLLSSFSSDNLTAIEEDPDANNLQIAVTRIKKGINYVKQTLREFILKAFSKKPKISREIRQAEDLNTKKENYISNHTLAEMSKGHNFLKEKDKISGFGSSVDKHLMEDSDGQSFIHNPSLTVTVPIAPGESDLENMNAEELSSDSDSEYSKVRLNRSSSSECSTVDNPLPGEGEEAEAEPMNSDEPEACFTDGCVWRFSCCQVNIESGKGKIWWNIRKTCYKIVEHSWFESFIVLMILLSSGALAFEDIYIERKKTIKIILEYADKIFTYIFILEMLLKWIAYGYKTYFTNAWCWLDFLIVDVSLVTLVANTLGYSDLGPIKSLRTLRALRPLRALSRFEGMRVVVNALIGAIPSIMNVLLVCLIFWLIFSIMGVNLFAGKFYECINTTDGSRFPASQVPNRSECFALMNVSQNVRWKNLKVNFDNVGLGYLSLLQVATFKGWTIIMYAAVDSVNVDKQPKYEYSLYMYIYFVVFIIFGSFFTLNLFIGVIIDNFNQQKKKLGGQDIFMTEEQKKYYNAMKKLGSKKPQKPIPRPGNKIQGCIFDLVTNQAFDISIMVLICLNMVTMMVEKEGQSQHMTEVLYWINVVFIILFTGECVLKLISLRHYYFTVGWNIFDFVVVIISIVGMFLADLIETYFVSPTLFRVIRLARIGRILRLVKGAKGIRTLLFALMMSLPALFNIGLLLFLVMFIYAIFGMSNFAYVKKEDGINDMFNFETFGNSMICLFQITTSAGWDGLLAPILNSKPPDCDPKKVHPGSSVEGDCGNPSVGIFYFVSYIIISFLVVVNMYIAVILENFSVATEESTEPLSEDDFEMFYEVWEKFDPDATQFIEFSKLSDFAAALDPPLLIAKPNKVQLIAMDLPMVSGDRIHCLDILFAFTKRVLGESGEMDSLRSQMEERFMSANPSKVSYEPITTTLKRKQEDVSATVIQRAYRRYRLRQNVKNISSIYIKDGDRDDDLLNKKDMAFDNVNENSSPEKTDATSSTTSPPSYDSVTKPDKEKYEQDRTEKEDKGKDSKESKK
row,Structure (SMILES),IC50 [µM]
1,"Cc1cc(C(=O)NS(C)(=O)=O)c(F)cc1-c1cnc(O[C@@H](C)c2cccc3ccccc23)c(Cl)c1 [Example 682, 4-(5-chloro-6-((1S)-1-(1-naphthalenyl)ethoxy)-3-pyridinyl)-2-fluoro-5-methyl-N-(methylsulfonyl)benzamide]",0.0551
2,"CS(=O)(=O)NC(=O)c1cc(F)c(-c2cnc(Oc3ccc(Cl)c(Cl)c3)c(Cl)c2)cc1F [Example 570, 4-(5-chloro-6-(3,4-dichlorophenoxy)-3-pyridinyl)-2,5-difluoro-N-(methylsulfonyl)benzamide]",0.0612
3,"Cc1cc(Cl)cc(Cl)c1Oc1ncc(-c2cc(F)c(C(=O)NS(C)(=O)=O)cc2Cl)cc1Cl [Example 598, 5-chloro-4-(5-chloro-6-(2,4-dichloro-6-methylphenoxy)-3-pyridinyl)-2-fluoro-N-(methylsulfonyl)benzamide]",0.0184
4,"Cc1cc(C(=O)NS(C)(=O)=O)c(F)cc1-c1cnc(Oc2ccc(Cl)cc2C(F)(F)F)c(Cl)c1 [Example 679, 4-(5-chloro-6-(4-chloro-2-(trifluoromethyl)phenoxy)-3-pyridinyl)-2-fluoro-5-methyl-N-(methylsulfonyl)benzamide]",0.0875
5,"Cc1ccc(Oc2ncc(-c3cc(F)c(C(=O)NS(C)(=O)=O)cc3F)cc2Cl)c(F)c1F [Example 569, 4-(5-chloro-6-(2,3-difluoro-4-methylphenoxy)-3-pyridinyl)-2,5-difluoro-N-(methylsulfonyl)benzamide]",0.06
6,"Cc1cc(C(=O)NS(C)(=O)=O)c(F)cc1-c1cnc(OC(C(F)(F)F)C(F)(F)F)c(Cl)c1 [Example 686, 4-(5-chloro-6-(2,2,2-trifluoro-1-(trifluoromethyl)ethoxy)-3-pyridinyl)-2-fluoro-5-methyl-N-(methylsulfonyl)benzamide]",0.115
7,"COc1cc(C(=O)NS(C)(=O)=O)ccc1-c1cnc(Oc2cc(Cl)cc(Cl)c2)c(C(F)F)c1 [Example 382, 4-(6-(3,5-dichlorophenoxy)-5-(difluoromethyl)-3-pyridinyl)-3-methoxy-N-(methylsulfonyl)benzamide]",0.054
8,"Cc1cccc(Cl)c1Oc1ncc(-c2ccc(C(=O)NS(C)(=O)=O)cc2OC2COC2)cc1Cl [Example 426, 4-(5-chloro-6-(2-chloro-6-methylphenoxy)-3-pyridinyl)-N-(methylsulfonyl)-3-(3-oxetanyloxy)benzamide]",0.075
9,"COc1cc(C(=O)NS(C)(=O)=O)ccc1-c1cnc(Oc2cccc(Cl)c2C)c(Cl)c1 [Example 579, 4-(5-chloro-6-(3-chloro-2-methylphenoxy)-3-pyridinyl)-3-methoxy-N-(methylsulfonyl)benzamide]",0.0486
10,"CCc1ccc(C)cc1Oc1ncc(-c2cc(F)c(C(=O)NS(C)(=O)=O)cc2C)cc1Cl [Example 680, 4-(5-chloro-6-(2-ethyl-5-methylphenoxy)-3-pyridinyl)-2-fluoro-5-methyl-N-(methylsulfonyl)benzamide]",0.0663
11,"Cc1cc(C(=O)NS(C)(=O)=O)c(F)cc1-c1cnc(N2CCC[C@@H]2c2cccc(C(F)(F)F)c2)c(Cl)c1 [Example 655, 4-(5-chloro-6-((2R)-2-(3-(trifluoromethyl)phenyl)-1-pyrrolidinyl)-3-pyridinyl)-2-fluoro-5-methyl-N-(methylsulfonyl)benzamide, 4-(5-chloro-6-((2S)-2-(3-(trifluoromethyl)phenyl)-1-pyrrolidinyl)-3-pyridinyl)-2-fluoro-5-methyl-N-(methylsulfonyl)benzamide]",0.102
12,"CCC(CC)Oc1ncc(-c2cc(F)c(C(=O)NS(C)(=O)=O)cc2Cl)cc1Cl [Example 601, 5-chloro-4-(5-chloro-6-(1-ethylpropoxy)-3-pyridinyl)-2-fluoro-N-(methylsulfonyl)benzamide]",0.0754
13,"Cc1cc(C(=O)NS(C)(=O)=O)c(F)cc1-c1cnc(OCCC2CC2)c(Cl)c1 [Example 683, 4-(5-chloro-6-(2-cyclopropylethoxy)-3-pyridinyl)-2-fluoro-5-methyl-N-(methylsulfonyl)benzamide]",0.111
14,"Cc1cc(C(=O)NS(C)(=O)=O)c(F)cc1-c1cnc(Oc2cccc(F)c2F)c(Cl)c1 [Example 604, 4-(5-chloro-6-(2,3-difluorophenoxy)-3-pyridinyl)-2-fluoro-5-methyl-N-(methylsulfonyl)benzamide]",0.109
15,"CS(=O)(=O)NC(=O)c1ccc(-c2cnc(Oc3cc(Cl)cc(Cl)c3)c(Cl)c2)c(OC2COC2)c1 [Example 422, 4-(5-chloro-6-(3,5-dichlorophenoxy)-3-pyridinyl)-N-(methylsulfonyl)-3-(3-oxetanyloxy)benzamide]",0.0313
16,"Cc1cc(C(=O)NS(C)(=O)=O)c(F)cc1-c1cnc(O[C@@H]2CCCC(C)(C)C2)c(Cl)c1 [Example 687, 4-(5-chloro-6-(((1R)-3,3-dimethylcyclohexyl)oxy)-3-pyridinyl)-2-fluoro-5-methyl-N-(methylsulfonyl)benzamide, 4-(5-chloro-6-(((1S)-3,3-dimethylcyclohexyl)oxy)-3-pyridinyl)-2-fluoro-5-methyl-N-(methylsulfonyl)benzamide]",0.0759
17,"COc1cc(C(=O)NS(C)(=O)=O)ccc1-c1cnc(Oc2ccc(F)c(F)c2F)c(Cl)c1 [Example 357, 4-(5-chloro-6-(2,3,4-trifluorophenoxy)-3-pyridinyl)-3-methoxy-N-(methylsulfonyl)benzamide]",0.0882

# Same assay, conditions: at 5 µM (5 uM)
row,Structure (SMILES),NAV 1.7 PX inhibition [%]
1,"COc1nccc(C)c1-c1cc(C(=O)NS(C)(=O)=O)ccc1-c1cnc(OCC(C)C)c(Cl)c1 [Example 820, 4-(5-Chloro-6-Isobutoxypyridin-3-yl)-3-(2-Methoxy-4-Methylpyridin-3-yl)-N-(Methylsulfonyl)Benzamide]",23

# Same assay, conditions: in-vitro Nav 1.7 PX data
row,Structure (SMILES),IC50 [µM]
1,"CCS(=O)(=O)NC(=O)c1ccc(-c2cnc(O[C@H]3C[C@H]4CC[C@@H]3C4)c(Cl)c2)c(OC)c1 [Example 792, 4-(6-((1R,2S,4S)-bicyclo[2.2.1]hept-2-yloxy)-5-chloro-3-pyridinyl)-N-(ethylsulfonyl)-3-methoxybenzamide]",0.0853
2,"Cc1cc(C(=O)NS(C)(=O)=O)c(F)cc1-c1cnc(NC(C)(C)C)c(Cl)c1 [Example 815, 4-(6-(tert-butylamino)-5-chloro-3-pyridinyl)-2-fluoro-5-methyl-N-(methylsulfonyl)benzamide]",0.231
3,"Cc1cc(C(=O)NS(C)(=O)=O)c(F)cc1-c1ccc(CC2CC2)c(Cl)c1 [Example 813, 3′-chloro-4′-(cyclopropylmethyl)-5-fluoro-2-methyl-N-(methylsulfonyl)-4-biphenylcarboxamide]",0.141
4,"COc1cc(C(=O)NS(C)(=O)=O)c(F)cc1-c1cnc(OCc2ccc(Cl)cc2)c(Cl)c1 [Example 750, 4-(5-chloro-6-((4-chlorobenzyl)oxy)-3-pyridinyl)-2-fluoro-5-methoxy-N-(methylsulfonyl)benzamide]",0.0747
5,"Cc1cc(C(=O)NS(C)(=O)=O)c(F)cc1-c1cnc(-c2ccc(Cl)c(Cl)c2)c(Cl)c1 [Example 835, 4-(5-chloro-6-(3,4-dichlorophenyl)-3-pyridinyl)-2-fluoro-5-methyl-N-(methylsulfonyl)benzamide]",0.167
6,"Cc1cc(C(=O)NS(C)(=O)=O)c(F)cc1-c1ccc(C(F)(F)F)c(Cl)c1 [Example 807, 3′-chloro-5-fluoro-2-methyl-N-(methylsulfonyl)-4′-(trifluoromethyl)-4-biphenylcarboxamide]",0.413
7,"COc1cc(C(=O)NS(C)(=O)=O)c(F)cc1-c1cnc(O[C@@H](C)Cc2ccccc2)c(Cl)c1 [Example 758, 4-(5-chloro-6-((1S)-1-methyl-2-phenylethoxy)-3-pyridinyl)-2-fluoro-5-methoxy-N-(methylsulfonyl)benzamide]",0.0838
8,"COc1cc(C(=O)NS(C)(=O)=O)c(F)cc1-c1cnc(O[C@@H]2CC[C@@H]2C)c(Cl)c1 [Example 770, 4-(5-chloro-6-(((1R,2S)-2-methylcyclobutyl)oxy)-3-pyridinyl)-2-fluoro-5-methoxy-N-(methylsulfonyl)benzamide]",0.11
9,"COc1cc(C(=O)NS(C)(=O)=O)c(F)cc1-c1cnc(Oc2c(Cl)cccc2Cl)c(Cl)c1 [Example 764, 4-(5-chloro-6-(2,6-dichlorophenoxy)-3-pyridinyl)-2-fluoro-5-methoxy-N-(methylsulfonyl)benzamide]",0.0367
10,"COc1cc(C(=O)NS(C)(=O)=O)ccc1-c1cnc(Cc2ccc(Cl)c(Cl)c2)c(Cl)c1 [Example 793, 4-(5-chloro-6-(3,4-dichlorobenzyl)pyridin-3-yl)-3-methoxy-N-(methylsulfonyl)benzamide]",0.0504
11,"COc1cc(C(=O)NS(C)(=O)=O)c(F)cc1-c1cnc(NC2CCC(C)(C)CC2)c(Cl)c1 [Example 724, 4-(5-chloro-6-((4,4-dimethylcyclohexyl)amino)-3-pyridinyl)-2-fluoro-5-methoxy-N-(methylsulfonyl)benzamide]",0.106
12,"COc1cc(Oc2ncc(-c3cc(F)c(C(=O)NS(C)(=O)=O)cc3OC)cc2Cl)c(Cl)cc1Cl [Example 716, 4-(5-chloro-6-(2,4-dichloro-5-methoxyphenoxy)-3-pyridinyl)-2-fluoro-5-methoxy-N-(methylsulfonyl)benzamide]",0.0917
13,"COc1cc(C(=O)NS(C)(=O)=O)c(F)cc1-c1cnc(Oc2cc(F)c(Cl)c(F)c2)c(Cl)c1 [Example 763, 4-(5-chloro-6-(4-chloro-3,5-difluorophenoxy)-3-pyridinyl)-2-fluoro-5-methoxy-N-(methylsulfonyl)benzamide]",0.0471
14,"COc1cc(C(=O)NS(C)(=O)=O)ccc1-c1cnc(Oc2ccc(C)c(Cl)c2)c(C#N)c1 [Example 829, 4-(6-(3-chloro-4-methylphenoxy)-5-cyano-3-pyridinyl)-3-methoxy-N-(methylsulfonyl)benzamide]",0.0505
15,"Cc1cc(Cl)cc(Cl)c1Oc1ncc(-c2ccc(C(=O)NS(C)(=O)=O)cc2Cl)cc1Cl [Example 776, 3-chloro-4-(5-chloro-6-(2,4-dichloro-6-methylphenoxy)-3-pyridinyl)-N-(methylsulfonyl)benzamide]",0.0345
16,"CCc1ccc(-c2cc(F)c(C(=O)NS(C)(=O)=O)cc2C)cc1Cl [Example 814, 3′-chloro-4′-ethyl-5-fluoro-2-methyl-N-(methylsulfonyl)-4-biphenylcarboxamide]",0.381
